Marks after values point to notes of the source that are not given here. Bridge positions count the residues as written; N and C are the ends. Ends that are not written are not given here.
Tests used:
[1] = test system: Bacillus cereus ATCC 2; experiment: Inhibitory spectrum, critical dilution with spot test; type: cell-based; settings: purified mutacin, 5 μL spotted on soft agar lawn on TSAYE; reciprocal of highest dilution showing inhibition zone
Method: (§1) Streptococcus mutans 59.1 and 123.1 produce mutacins F-59.1 and D-123.1 respectively. Micrococcus luteus ATCC 272 (ATCC, Manassas, VA, USA) was used as the indicator strain for the mutacin activity assays. All bacteria were routinely grown aerobically at 37°C in TSBYE made of TSB (Difco laboratories, Detroit, MI, USA) supplemented with 0.3% yeast extract (Becton Dickinson & Co., Cockeysville, MD, USA) or on TSAYE plates made of TSA (Difco) enriched with 0.3% yeast extract. Lactobacillus salivarius strain (provided by Sylvain Moineau, Université Laval, Québec, QC, Canada) was cultivated aerobically at 30°C in MRS medium (Oxoid, Nepean, ON, Canada). Other bacterial strains used for the inhibitory spectra determination are described in Mota-Meira et al. and Morency et al.. Staphylococcus carnosus was obtained from the strain collection of the Department of Microbiology, Biochemistry and Bioinformatics (Université Laval).
(§2) Mutacin activity was determined by the spot test using Micrococcus luteus ATCC 272 as sensitive strain where two-fold dilutions were prepared in acidified (pH 2) peptone water (0.5%). Antibacterial activity spectra of purified mutacins was tested against a panel of bacterial strains using the critical dilution method combined with the spot test method as described previously. Briefly, overnight cultures of test strains in TSBYE were diluted in fresh broth before inoculating 5 mL of soft agar (0.75%) in order to obtain confluent lawns of growth on TSAYE plates. Five μL of purified mutacins, diluted in acidified (10 mM HCl) distilled water to promote solubility of the peptides, were deposited on the lawn and allowed to dry before appropriate incubation. Mutacin activity was expressed in AU/mL and corresponds to the reciprocal of the highest dilution showing a noticeable inhibition zone on the lawn.

[2] = test system: Bacillus subtilis ATCC 6051; experiment: as above; type: cell-based; settings: purified mutacin, 5 μL spotted on soft agar lawn on TSAYE; reciprocal of highest dilution showing inhibition zone
Method: as §1, §2

[3] = test system: Enterococcus faecalis ATCC 27235; experiment: as above; type: cell-based; settings: purified mutacin, 5 μL spotted on soft agar lawn on TSAYE; reciprocal of highest dilution showing inhibition zone
Method: as §1, §2

[4] = test system: Enterococcus faecium ATCC 19434; experiment: as above; type: cell-based; settings: purified mutacin, 5 μL spotted on soft agar lawn on TSAYE; reciprocal of highest dilution showing inhibition zone
Method: as §1, §2

[5] = test system: Enterococcus hirae ATCC 8043; experiment: as above; type: cell-based; settings: purified mutacin, 5 μL spotted on soft agar lawn on TSAYE; reciprocal of highest dilution showing inhibition zone
Method: as §1, §2

[6] = test system: Lactobacillus salivarius SMQ 876; experiment: as above; type: cell-based; settings: purified mutacin, 5 μL spotted on soft agar lawn; reciprocal of highest dilution showing inhibition zone
Method: as §1, §2

[7] = test system: Lactococcus lactis ATCC 11454; experiment: as above; type: cell-based; settings: purified mutacin, 5 μL spotted on soft agar lawn on TSAYE; reciprocal of highest dilution showing inhibition zone
Method: as §1, §2

[8] = test system: Listeria grayi ATCC 19120; experiment: as above; type: cell-based; settings: purified mutacin, 5 μL spotted on soft agar lawn on TSAYE; reciprocal of highest dilution showing inhibition zone
Method: as §1, §2

[9] = test system: Listeria ivanovii HPB 28; experiment: as above; type: cell-based; settings: purified mutacin, 5 μL spotted on soft agar lawn on TSAYE; reciprocal of highest dilution showing inhibition zone
Method: as §1, §2

[10] = test system: Listeria monocytogenes ATCC 15313; experiment: as above; type: cell-based; settings: purified mutacin, 5 μL spotted on soft agar lawn on TSAYE; reciprocal of highest dilution showing inhibition zone
Method: as §1, §2

[11] = test system: Listeria murrayi ATCC 25420; experiment: as above; type: cell-based; settings: purified mutacin, 5 μL spotted on soft agar lawn on TSAYE; reciprocal of highest dilution showing inhibition zone
Method: as §1, §2

[12] = test system: Micrococcus luteus ATCC 272; experiment: as above; type: cell-based; settings: purified mutacin, 5 μL spotted on soft agar lawn on TSAYE; reciprocal of highest dilution showing inhibition zone
Method: as §1, §2

[13] = test system: Pediococcus acidilactici UL5; experiment: as above; type: cell-based; settings: purified mutacin, 5 μL spotted on soft agar lawn on TSAYE; reciprocal of highest dilution showing inhibition zone
Method: as §1, §2

[14] = test system: Staphylococcus aureus ATCC 6538; experiment: as above; type: cell-based; settings: purified mutacin, 5 μL spotted on soft agar lawn on TSAYE; reciprocal of highest dilution showing inhibition zone
Method: as §1, §2

[15] = test system: Staphylococcus carnosus; experiment: as above; type: cell-based; settings: purified mutacin, 5 μL spotted on soft agar lawn on TSAYE; reciprocal of highest dilution showing inhibition zone
Method: as §1, §2

[16] = test system: Streptococcus pyogenes ATCC 10389; experiment: as above; type: cell-based; settings: purified mutacin, 5 μL spotted on soft agar lawn on TSAYE; reciprocal of highest dilution showing inhibition zone
Method: as §1, §2

[17] = test system: Streptococcus salivarius; experiment: as above; type: cell-based; settings: purified mutacin, 5 μL spotted on soft agar lawn on TSAYE; reciprocal of highest dilution showing inhibition zone
Method: as §1, §2

[18] = test system: Streptococcus sobrinus ATCC 27352; experiment: as above; type: cell-based; settings: purified mutacin, 5 μL spotted on soft agar lawn on TSAYE; reciprocal of highest dilution showing inhibition zone
Method: as §1, §2

[19] = test system: Streptococcus suis serotype 2; experiment: as above; type: cell-based; settings: purified mutacin, 5 μL spotted on soft agar lawn on TSAYE; reciprocal of highest dilution showing inhibition zone
Method: as §1, §2

[20] = test system: L. monocytogenes ATCC 700301 ScottA; experiment: as above; type: cell-based, Listeria monocytogenes; settings: purified mutacin, 5 μL spotted on soft agar lawn on TSAYE; reciprocal of highest dilution showing inhibition zone
Method: as §1, §2

[21] = test system: L. monocytogenes ATCC 700302 ScottA; experiment: as above; type: cell-based, Listeria monocytogenes; settings: purified mutacin, 5 μL spotted on soft agar lawn on TSAYE; reciprocal of highest dilution showing inhibition zone
Method: as §1, §2

[22] = test system: L. monocytogenes FRDC 1039; experiment: as above; type: cell-based, Listeria monocytogenes; settings: purified mutacin, 5 μL spotted on soft agar lawn on TSAYE; reciprocal of highest dilution showing inhibition zone
Method: as §1, §2

[23] = test system: L. monocytogenes FRDC 88571; experiment: as above; type: cell-based, Listeria monocytogenes; settings: purified mutacin, 5 μL spotted on soft agar lawn on TSAYE; reciprocal of highest dilution showing inhibition zone
Method: as §1, §2

[24] = test system: L. murrayi HPB 30; experiment: as above; type: cell-based, Listeria murrayi; settings: purified mutacin, 5 μL spotted on soft agar lawn on TSAYE; reciprocal of highest dilution showing inhibition zone
Method: as §1
Mutacin activity was determined by the spot test using Micrococcus luteus ATCC 272 as sensitive strain where two-fold dilutions were prepared in acidified (pH 2) peptone water (0.5%). Antibacterial activity spectra of purified mutacins was tested against a panel of bacterial strains using the critical dilution method combined with the spot test method as described previously. […]

[25] = test system: S. aureus ATCC 25923; experiment: as above; type: cell-based, Staphylococcus aureus; settings: purified mutacin, 5 μL spotted on soft agar lawn on TSAYE; reciprocal of highest dilution showing inhibition zone
Method: as §1, §2

[26] = test system: S. aureus ATCC 43300; experiment: as above; type: cell-based, Staphylococcus aureus; settings: purified mutacin, 5 μL spotted on soft agar lawn on TSAYE; reciprocal of highest dilution showing inhibition zone
Method: as §1, §2

[27] = test system: S. aureus R621; experiment: as above; type: cell-based, Staphylococcus aureus; settings: purified mutacin, 5 μL spotted on soft agar lawn on TSAYE; reciprocal of highest dilution showing inhibition zone
Method: as §1, §2

[28] = test system: Micrococcus luteus ATCC 272; experiment: Mutacin activity assay (spot test) of preparations during production and purification; type: cell-based
Method: as §1
(§3) Purification of the two mutacins was achieved by two hydrophobic chromatography steps as previously described by replacing TFA with HCl (10 mM). Briefly, the active preparation was loaded on a Sep-Pak® Vac 35 cc (10 g) t-C18 Cartridge (Waters Corporation, Milford, MA, USA). Cartridges were first equilibrated with 500 mL of methanol followed by 500 mL of deionized distilled water. Antibacterial compounds were eluted with successive steps of 500 mL of water:methanol mixtures increasing the gradient of methanol by 10% from 0 to 100% in 10 mM HCl. This was carried out at a flow rate of 1 mL/min and UV detection at 214 nm. The final purification step was carried out by reverse phase chromatography (RP)-HPLC analysis (Beckman Gold Model, Coulter Canada Inc., Mississauga, ON, Canada) using an analytical C18 column (Luna 5 μ C18(2), 250 × 4.6 mm, 4 × 3.0 mm, Phenomenex, Torrance, CA, USA). Elution was carried out with solvent A (5% acetonitrile, 10 mM HCl) and solvent B (60% acetonitrile, 10 mM HCl) and recorded at 214 nm. The following program of elution was developed: 0 to 3 min, constant 100% A; 3 to 15 min, a linear gradient from 100% A to 100% B; 15 to 20 min, constant 100% B; 20 to 23 min, a linear gradient from 100% B to 100% A. A flow rate of 1 mL/min was used. The column was maintained at 39°C with a column heater. Active fractions were manually collected, subsequently dried in a Speed-Vac® concentrator (Model SC110A, Savant Instrument Inc. Farmingdale, NY, USA) and then kept at -20°C until processing. Protein concentration in active fractions was determined using the BioRad DC protein assay (BioRad, Mississauga, ON, Canada).
as §2

[29] = test system: Micrococcus luteus ATCC 272; experiment: Inhibitory effect of mutacin F-59.1 on viable count (time-kill); type: cell-based
Method: One milliliter of active preparation (1600 AU/mL) adjusted to pH 7.0 was filter sterilised then added to 10 mL of an early-log-phase culture of Micrococcus luteus ATCC 272 grown in TSBYE. Bacterial culture in TSBYE was used as a negative control. The viable count in CFU/mL was determined at intervals for up to 24 h for samples and control during incubation at 37°C by plating 100 μL of an appropriate dilution in peptone water (0.1%) on TSAYE incubated at 37°C at least 24 h.

[30] = Hydrophobic chromatography elution (Sep-Pak t-C18, methanol steps) as measure of hydrophobicity; type: physicochemical; settings: Sep-Pak t-C18 cartridge, water:methanol steps of 10% from 0 to 100% in 10 mM HCl; used as indication of hydrophobicity
Method: as §3, with “The column was maintained at 39°C with a column heater. Active fractions were manually collected, subsequently dried in a Speed-Vac® concentrator (Model SC110A, Savant Instrument Inc. Farmingdale, NY, USA) and then kept at -20°C until processing.” left out

Sequence: KYYGNGVTCGKHSCSVDWSKATTNI (disulfide 9-14 (inferred)) [mutacin F-59.1, pediocin-like (class IIa) bacteriocin of 25 amino acids produced by Streptococcus mutans 59.1; UniProt P86386]
- Activity of mutacin against Bacillus cereus ATCC 2 [1]: 400 AU/mL
- Activity of mutacin against Bacillus subtilis ATCC 6051 [2]: 400 AU/mL
- Activity of mutacin against Enterococcus faecalis ATCC 27235 [3]: 200 AU/mL
- Activity of mutacin against Enterococcus faecium ATCC 19434 [4]: 1600 AU/mL
- Activity of mutacin against Enterococcus hirae ATCC 8043 [5]: 200 AU/mL
- Activity of mutacin against Lactobacillus salivarius SMQ 876 [6]: 0 AU/mL
- Activity of mutacin against Lactococcus lactis ATCC 11454 [7]: 400 AU/mL
- Activity of mutacin against Listeria grayi ATCC 19120 [8]: 200 AU/mL
- Activity of mutacin against Listeria ivanovii HPB 28 [9]: 200 AU/mL
- Activity of mutacin against Listeria monocytogenes ATCC 15313 [10]: 200^b AU/mL
- Activity of mutacin against Listeria murrayi ATCC 25420 [11]: 200^b AU/mL
- Activity of mutacin against Micrococcus luteus ATCC 272 [12]: 3200 AU/mL
- Activity of mutacin against Pediococcus acidilactici UL5 [13]: 800 AU/mL
- Activity of mutacin against Staphylococcus aureus ATCC 6538 [14]: 0 AU/mL
- Activity of mutacin against Staphylococcus carnosus [15]: 800 AU/mL
- Activity of mutacin against Streptococcus pyogenes ATCC 10389 [16]: 0 AU/mL
- Activity of mutacin against Streptococcus salivarius ATCC 25923 [17]: 800 AU/mL
- Activity of mutacin against Streptococcus sobrinus ATCC 27352 [18]: 800 AU/mL
- Activity of mutacin against Streptococcus suis serotype 2 [19]: 0 AU/mL
- Activity of mutacin against L. monocytogenes ATCC 700301 ScottA [20]: 200^b AU/mL
- Activity of mutacin against L. monocytogenes ATCC 700302 ScottA [21]: 200^b AU/mL
- Activity of mutacin against L. monocytogenes FRDC 1039 [22]: 200^b AU/mL
- Activity of mutacin against L. monocytogenes FRDC 88571 [23]: 200^b AU/mL
- Activity of mutacin against L. murrayi HPB 30 [24]: 200^b AU/mL
- Activity of mutacin against S. aureus ATCC 25923 [25]: 0 AU/mL
- Activity of mutacin against S. aureus ATCC 43300 [26]: 0 AU/mL
- Activity of mutacin against S. aureus R621 [27]: 0 AU/mL
- Activity ([28]; step: C18 RP-HPLC (purified), spot test on M. luteus ATCC 272, two-fold dilutions): 16000 AU/mL
- Specific activity (final, purified mutacin) ([28]; step: C18 RP-HPLC, per mg total protein (BioRad DC assay)): 3.2 × 10^5 AU/mg
- Specific activity ([28]; step: Sep-Pak C18, per mg total protein (BioRad DC assay)): 101 AU/mg
- Activity ([28]; step: Sep-Pak C18, spot test on M. luteus ATCC 272, two-fold dilutions): 3200 AU/mL
- Activity ([28]; step: culture supernatant (crude preparation), spot test on M. luteus ATCC 272, two-fold dilutions in acidified (pH 2) peptone water): 400 AU/mL
- Specific activity ([28]; step: culture supernatant, per mg total protein (BioRad DC assay)): 40 AU/mg
- Viable count of M. luteus ATCC 272 after addition of purified mutacin ([29]; 160 AU/mL (1 mL of 1600 AU/mL, pH 7.0, added to 10 mL early-log culture in TSBYE), 37°C, followed up to 24 h, CFU/mL by plating): dropped to zero
- Mode of action (bactericidal or not) ([29]; 160 AU/mL, M. luteus ATCC 272, 24 h incubation): bactericidal
- Elution gradient at which active fractions were recovered (methanol in 10 mM HCl) [30]: 50%-60%

Reference: paper PMC3088537, “Production, purification, sequencing and activity spectra of mutacins D-123.1 and F-59.1” (BMC Microbiology, 2011)
